According to patent US20240415914A1, “Water Dispersible Cannabinoid Compositions” (priority 2021, published 2024):
Like-named read-outs stand apart in the source and are kept apart here.

Tests used:
[1] = Stability of cannabinoid and Vitamin E components of Beverage 2 (AB Red) stored at 8° C. and 21-25° C., LCMSMS over 570 days
Procedure: The LCMSMS was calibrated for 0-50 ng/ml cannabinoids with the same resin material used in the preparation of the concentrates. At each time period, 100 μml of beverage was diluted with 10 ml of methanol and injected into the LCMSMS for analysis.

[2] = type: physicochemical; conditions: stored at room temperature (21-25° C.)
Procedure: At each time period, 0.05 g of powder was dissolved in 10 ml-15 of ethanol, diluted to fall within the analytical range, and injected into the LCMSMS for analysis.

## CCCc1cc(O)c2c(c1)OC(C)(C)[C@@H]1CCC(C)=C[C@@H]21 [THCV, delta-9-tetrahydrocannabivarin]
[1]; 8° C., 0 days
  Stability of Cannabinoids in AB Red: 3.22 µg/mL
[1]; 8° C., 1 days
  Stability of Cannabinoids in AB Red: 3.19 µg/mL
[1]; 8° C., 2 days
  Stability of Cannabinoids in AB Red: 3.17 µg/mL
[1]; 8° C., 3 days
  Stability of Cannabinoids in AB Red: 3.20 µg/mL
[1]; 8° C., 5 days
  Stability of Cannabinoids in AB Red: 3.24 µg/mL
[1]; 8° C., 8 days
  Stability of Cannabinoids in AB Red: 3.17 µg/mL
[1]; 8° C., 9 days
  Stability of Cannabinoids in AB Red: 3.14 µg/mL
[1]; 8° C., 10 days
  Stability of Cannabinoids in AB Red: 3.14 µg/mL
[1]; 8° C., 11 days
  Stability of Cannabinoids in AB Red: 3.24 µg/mL
[1]; 8° C., 12 days
  Stability of Cannabinoids in AB Red: 3.25 µg/mL
[1]; 8° C., 15 days
  Stability of Cannabinoids in AB Red: 3.19 µg/mL
[1]; 8° C., 16 days
  Stability of Cannabinoids in AB Red: 3.25 µg/mL
[1]; 8° C., 17 days
  Stability of Cannabinoids in AB Red: 3.12 µg/mL
[1]; 8° C., 18 days
  Stability of Cannabinoids in AB Red: 3.17 µg/mL
[1]; 8° C., 19 days
  Stability of Cannabinoids in AB Red: 3.19 µg/mL
[1]; 8° C., 22 days
  Stability of Cannabinoids in AB Red: 3.22 µg/mL
[1]; 8° C., 23 days
  Stability of Cannabinoids in AB Red: 3.25 µg/mL
[1]; 8° C., 24 days
  Stability of Cannabinoids in AB Red: 3.15 µg/mL
[1]; 8° C., 25 days
  Stability of Cannabinoids in AB Red: 3.25 µg/mL
[1]; 8° C., 26 days
  Stability of Cannabinoids in AB Red: 3.13 µg/mL
[1]; 8° C., 29 days
  Stability of Cannabinoids in AB Red: 3.22 µg/mL
[1]; 8° C., 30 days
  Stability of Cannabinoids in AB Red: 3.20 µg/mL
[1]; 8° C., 60 days
  Stability of Cannabinoids in AB Red: 3.11 µg/mL
[1]; 8° C., 90 days
  Stability of Cannabinoids in AB Red: 3.10 µg/mL
[1]; 8° C., 120 days
  Stability of Cannabinoids in AB Red: 3.10 µg/mL
[1]; 8° C., 150 days
  Stability of Cannabinoids in AB Red: 3.15 µg/mL
[1]; 8° C., 180 days
  Stability of Cannabinoids in AB Red: 3.10 µg/mL
[1]; 8° C., 210 days
  Stability of Cannabinoids in AB Red: 3.15 µg/mL
[1]; 8° C., 240 days
  Stability of Cannabinoids in AB Red: 3.08 µg/mL
[1]; 8° C., 270 days
  Stability of Cannabinoids in AB Red: 3.15 µg/mL
[1]; 8° C., 300 days
  Stability of Cannabinoids in AB Red: 3.15 µg/mL
[1]; 8° C., 330 days
  Stability of Cannabinoids in AB Red: 3.15 µg/mL
[1]; 8° C., 390 days
  Stability of Cannabinoids in AB Red: 3.08 µg/mL
[1]; 8° C., 420 days
  Stability of Cannabinoids in AB Red: 3.13 µg/mL
[1]; 8° C., 450 days
  Stability of Cannabinoids in AB Red: 3.08 µg/mL
[1]; 8° C., 480 days
  Stability of Cannabinoids in AB Red: 3.05 µg/mL
[1]; 8° C., 510 days
  Stability of Cannabinoids in AB Red: 2.95 µg/mL
[1]; 8° C., 540 days
  Stability of Cannabinoids in AB Red: 2.99 µg/mL
[1]; 8° C., 570 days
  Stability of Cannabinoids in AB Red: 2.95 µg/mL
[1]; 21-25° C., 0 days
  Stability of Cannabinoids in AB Red: 3.22 µg/mL
[1]; 21-25° C., 1 days
  Stability of Cannabinoids in AB Red: 3.13 µg/mL
[1]; 21-25° C., 2 days
  Stability of Cannabinoids in AB Red: 3.20 µg/mL
[1]; 21-25° C., 3 days
  Stability of Cannabinoids in AB Red: 3.25 µg/mL
[1]; 21-25° C., 5 days
  Stability of Cannabinoids in AB Red: 3.25 µg/mL
[1]; 21-25° C., 8 days
  Stability of Cannabinoids in AB Red: 3.19 µg/mL
[1]; 21-25° C., 9 days
  Stability of Cannabinoids in AB Red: 3.17 µg/mL
[1]; 21-25° C., 10 days
  Stability of Cannabinoids in AB Red: 3.09 µg/mL
[1]; 21-25° C., 11 days
  Stability of Cannabinoids in AB Red: 3.24 µg/mL
[1]; 21-25° C., 12 days
  Stability of Cannabinoids in AB Red: 3.24 µg/mL
[1]; 21-25° C., 15 days
  Stability of Cannabinoids in AB Red: 3.20 µg/mL
[1]; 21-25° C., 16 days
  Stability of Cannabinoids in AB Red: 3.20 µg/mL
[1]; 21-25° C., 17 days
  Stability of Cannabinoids in AB Red: 3.11 µg/mL
[1]; 21-25° C., 18 days
  Stability of Cannabinoids in AB Red: 3.19 µg/mL
[1]; 21-25° C., 19 days
  Stability of Cannabinoids in AB Red: 3.19 µg/mL
[1]; 21-25° C., 22 days
  Stability of Cannabinoids in AB Red: 3.18 µg/mL
[1]; 21-25° C., 23 days
  Stability of Cannabinoids in AB Red: 3.23 µg/mL
[1]; 21-25° C., 24 days
  Stability of Cannabinoids in AB Red: 3.25 µg/mL
[1]; 21-25° C., 25 days
  Stability of Cannabinoids in AB Red: 3.24 µg/mL
[1]; 21-25° C., 26 days
  Stability of Cannabinoids in AB Red: 3.11 µg/mL
[1]; 21-25° C., 29 days
  Stability of Cannabinoids in AB Red: 3.15 µg/mL
[1]; 21-25° C., 30 days
  Stability of Cannabinoids in AB Red: 3.15 µg/mL
[1]; 21-25° C., 60 days
  Stability of Cannabinoids in AB Red: 3.18 µg/mL
[1]; 21-25° C., 90 days
  Stability of Cannabinoids in AB Red: 3.05 µg/mL
[1]; 21-25° C., 120 days
  Stability of Cannabinoids in AB Red: 3.09 µg/mL
[1]; 21-25° C., 150 days
  Stability of Cannabinoids in AB Red: 3.17 µg/mL
[1]; 21-25° C., 180 days
  Stability of Cannabinoids in AB Red: 3.10 µg/mL
[1]; 21-25° C., 210 days
  Stability of Cannabinoids in AB Red: 3.03 µg/mL
[1]; 21-25° C., 240 days
  Stability of Cannabinoids in AB Red: 3.18 µg/mL
[1]; 21-25° C., 270 days
  Stability of Cannabinoids in AB Red: 3.04 µg/mL
[1]; 21-25° C., 300 days
  Stability of Cannabinoids in AB Red: 3.14 µg/mL
[1]; 21-25° C., 330 days
  Stability of Cannabinoids in AB Red: 3.19 µg/mL
[1]; 21-25° C., 390 days
  Stability of Cannabinoids in AB Red: 3.04 µg/mL
[1]; 21-25° C., 420 days
  Stability of Cannabinoids in AB Red: 3.10 µg/mL
[1]; 21-25° C., 450 days
  Stability of Cannabinoids in AB Red: 3.14 µg/mL
[1]; 21-25° C., 480 days
  Stability of Cannabinoids in AB Red: 3.04 µg/mL
[1]; 21-25° C., 510 days
  Stability of Cannabinoids in AB Red: 3.01 µg/mL
[1]; 21-25° C., 540 days
  Stability of Cannabinoids in AB Red: 2.95 µg/mL
[1]; 21-25° C., 570 days
  Stability of Cannabinoids in AB Red: 2.98 µg/mL
[2]; day 0
  Stability in Powder Concentrate (content by LCMSMS): 0.680 mg/g powder
[2]; day 1
  Stability in Powder Concentrate (content by LCMSMS): 0.685 mg/g powder
[2]; day 2
  Stability in Powder Concentrate (content by LCMSMS): 0.699 mg/g powder
[2]; day 3
  Stability in Powder Concentrate (content by LCMSMS): 0.698 mg/g powder
[2]; day 5
  Stability in Powder Concentrate (content by LCMSMS): 0.676 mg/g powder
[2]; day 8
  Stability in Powder Concentrate (content by LCMSMS): 0.685 mg/g powder
[2]; day 9
  Stability in Powder Concentrate (content by LCMSMS): 0.693 mg/g powder
[2]; day 10
  Stability in Powder Concentrate (content by LCMSMS): 0.706 mg/g powder
[2]; day 11
  Stability in Powder Concentrate (content by LCMSMS): 0.708 mg/g powder
[2]; day 12
  Stability in Powder Concentrate (content by LCMSMS): 0.698 mg/g powder
[2]; day 15
  Stability in Powder Concentrate (content by LCMSMS): 0.684 mg/g powder
[2]; day 16
  Stability in Powder Concentrate (content by LCMSMS): 0.658 mg/g powder
[2]; day 17
  Stability in Powder Concentrate (content by LCMSMS): 0.681 mg/g powder
[2]; day 18
  Stability in Powder Concentrate (content by LCMSMS): 0.690 mg/g powder
[2]; day 19
  Stability in Powder Concentrate (content by LCMSMS): 0.705 mg/g powder
[2]; day 22
  Stability in Powder Concentrate (content by LCMSMS): 0.703 mg/g powder
[2]; day 23
  Stability in Powder Concentrate (content by LCMSMS): 0.687 mg/g powder
[2]; day 24
  Stability in Powder Concentrate (content by LCMSMS): 0.668 mg/g powder
[2]; day 25
  Stability in Powder Concentrate (content by LCMSMS): 0.689 mg/g powder
[2]; day 26
  Stability in Powder Concentrate (content by LCMSMS): 0.686 mg/g powder
[2]; day 29
  Stability in Powder Concentrate (content by LCMSMS): 0.706 mg/g powder
[2]; day 30
  Stability in Powder Concentrate (content by LCMSMS): 0.659 mg/g powder
[2]; day 60
  Stability in Powder Concentrate (content by LCMSMS): 0.702 mg/g powder
[2]; day 90
  Stability in Powder Concentrate (content by LCMSMS): 0.707 mg/g powder
[2]; day 120
  Stability in Powder Concentrate (content by LCMSMS): 0.658 mg/g powder
[2]; day 150
  Stability in Powder Concentrate (content by LCMSMS): 0.695 mg/g powder
[2]; day 180
  Stability in Powder Concentrate (content by LCMSMS): 0.685 mg/g powder
[2]; day 210
  Stability in Powder Concentrate (content by LCMSMS): 0.662 mg/g powder
[2]; day 240
  Stability in Powder Concentrate (content by LCMSMS): 0.700 mg/g powder
[2]; day 270
  Stability in Powder Concentrate (content by LCMSMS): 0.670 mg/g powder
[2]; day 300
  Stability in Powder Concentrate (content by LCMSMS): 0.685 mg/g powder
[2]; day 330
  Stability in Powder Concentrate (content by LCMSMS): 0.691 mg/g powder
[2]; day 360
  Stability in Powder Concentrate (content by LCMSMS): 0.668 mg/g powder
[2]; day 390
  Stability in Powder Concentrate (content by LCMSMS): 0.680 mg/g powder
[2]; day 420
  Stability in Powder Concentrate (content by LCMSMS): 0.671 mg/g powder
[2]; day 450
  Stability in Powder Concentrate (content by LCMSMS): 0.680 mg/g powder
[2]; day 480
  Stability in Powder Concentrate (content by LCMSMS): 0.695 mg/g powder
[2]; day 510
  Stability in Powder Concentrate (content by LCMSMS): 0.696 mg/g powder
[2]; day 540
  Stability in Powder Concentrate (content by LCMSMS): 0.664 mg/g powder
[2]; day 570
  Stability in Powder Concentrate (content by LCMSMS): 0.686 mg/g powder
